Test results as given in patent publication US20250009737A1, “COMPOUNDS AND METHODS FOR THE TARGETED DEGRADATION OF ANDROGEN RECEPTOR” (Arvinas Operations, Inc., priority 2023, published 2025).
Like-named read-outs stand apart in the source and are kept apart here.

Key:
Format in all cases: in vitro ADME
OATP1B1 = biological target: T1, OATP1B1 (Homo sapiens, UniProt Q9Y6L6); assay: OATP1B1 uptake transporter substrate assay; set-up: expressed in transfected cells; conditions: OATP1B1-expressing vs control cell
T1 sequence (Q9Y6L6 1-691): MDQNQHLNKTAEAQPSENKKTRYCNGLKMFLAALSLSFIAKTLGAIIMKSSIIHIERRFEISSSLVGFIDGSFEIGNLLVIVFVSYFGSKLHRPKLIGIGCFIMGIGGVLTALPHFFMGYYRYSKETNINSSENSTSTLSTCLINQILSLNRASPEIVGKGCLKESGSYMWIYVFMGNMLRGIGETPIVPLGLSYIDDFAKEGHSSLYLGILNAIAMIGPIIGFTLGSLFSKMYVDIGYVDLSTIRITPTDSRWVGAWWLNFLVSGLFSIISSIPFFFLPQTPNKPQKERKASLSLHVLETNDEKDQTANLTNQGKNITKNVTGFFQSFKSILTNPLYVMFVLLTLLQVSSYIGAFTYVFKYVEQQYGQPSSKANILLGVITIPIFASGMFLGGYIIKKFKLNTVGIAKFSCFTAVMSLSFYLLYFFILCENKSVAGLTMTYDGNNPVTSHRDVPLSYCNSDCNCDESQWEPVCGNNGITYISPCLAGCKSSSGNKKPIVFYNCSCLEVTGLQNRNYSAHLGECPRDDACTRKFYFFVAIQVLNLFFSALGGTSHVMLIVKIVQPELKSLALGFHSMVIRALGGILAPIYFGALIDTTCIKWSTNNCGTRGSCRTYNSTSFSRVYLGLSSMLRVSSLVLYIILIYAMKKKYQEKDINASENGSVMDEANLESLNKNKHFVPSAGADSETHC
Procedure: (§1) The potential of Compound A to act as an efflux transporter Pgp and BCRP as well as uptake transporter OATP1B1 and 1B3 were assessed in Caco-2 and single transporter over-expressed HEK29 cells, respectively.
(§2) The potential of Compound A to act as a substrate for Pgp and BCRP was examined in Caco-2 cells at the concentrations of 0.075, 0.75, 3.75 and 7.5 μM containing 1% of BSA. After 120 min incubation, the bidirectional permeability of Compound A was determined by LC-MS/MS. The involvement of Compound A as a substrate of OATP1B1 and OATP1B3 was assessed in the uptake transporter substrate assays at 4 concentrations (0.1, 0.5, 1 and 5 μM). Compound A in cell lysates was determined by LC-MS/MS.

CYP2B6 mRNA = CYP2B6 mRNA induction in cryopreserved human hepatocytes; conditions: 0.03-30 μM; for CYP2B6 mRNA Fold induction: human hepatocytes, 48 hours
Procedure: (§3) The induction potential of Compound A on CYP enzymes was assessed in cryopreserved human hepatocytes from three donors. Following treatment for with Compound A at concentrations of 0.03-30 μM for 48 hours, mRNA levels for CYP1A2, 2B6, 2C8, 2C9, 2C19, and 3A4 were determined by semiquantitative real-time polymerase chain reaction (PCR). Test article concentrations during 24-hour incubation were determined. The potential of Compound A to cause direct and time-dependent inhibition (TDI) of the activities of CYP1A2, 2B6, 2C8, 2C9, 2C19, 2D6, and 3A4 was evaluated in pooled human liver microsomes (HLM) at 0.2-15 μM. Probe substrate concentrations around Km were used for direction inhibition and initial TDI assays. For TDI assay, Compound A was pre-incubated with pooled HLM with and without NADPH for 30 minutes prior to incubation with a single concentration of probe substrate.

CYP3A5 = CYP3A5 (Homo sapiens, UniProt P20815); assay: Incubation with recombinant human CYP3A5
Procedure: (§4) Metabolite profiling was conducted in incubations of Compound A (2 and 10 μM) with HLM (up to 60 min), human hepatocyte suspension (up to 240 min) and human plasma (up to 360 min). In addition, Compound A (2 μM) was incubated with recombinant human CYP enzymes CYP1A2, CYP2A6, CYP2B6, CYP2C8, CYP2C9, CYP2C19, CYP2D6, CYP2E1, CYP3A4 and CYP3A5.
(§5) The DDI potential of Compound A as a victim via CYP mediated pathways was examined in HLM, human hepatocyte suspensions, and human recombinant CYP enzymes.

CYP2B6 = biological target: T2, CYP2B6 (Homo sapiens, UniProt P20813); assay: Direct and time-dependent CYP2B6 inhibition in pooled human liver microsomes; conditions: pooled HLM, substrate Bupropion 50 μM
T2 construct: evaluated in pooled human liver microsomes (HLM); from tissue; host or cells: pooled human liver microsomes
Procedure: as §3

OATP1B3 = biological target: T3, OATP1B3 (Homo sapiens, UniProt Q9NPD5); assay: OATP1B3 uptake transporter substrate assay; set-up: expressed in transfected cells; conditions: OATP1B3-expressing vs control cell
T3 sequence (Q9NPD5 1-702): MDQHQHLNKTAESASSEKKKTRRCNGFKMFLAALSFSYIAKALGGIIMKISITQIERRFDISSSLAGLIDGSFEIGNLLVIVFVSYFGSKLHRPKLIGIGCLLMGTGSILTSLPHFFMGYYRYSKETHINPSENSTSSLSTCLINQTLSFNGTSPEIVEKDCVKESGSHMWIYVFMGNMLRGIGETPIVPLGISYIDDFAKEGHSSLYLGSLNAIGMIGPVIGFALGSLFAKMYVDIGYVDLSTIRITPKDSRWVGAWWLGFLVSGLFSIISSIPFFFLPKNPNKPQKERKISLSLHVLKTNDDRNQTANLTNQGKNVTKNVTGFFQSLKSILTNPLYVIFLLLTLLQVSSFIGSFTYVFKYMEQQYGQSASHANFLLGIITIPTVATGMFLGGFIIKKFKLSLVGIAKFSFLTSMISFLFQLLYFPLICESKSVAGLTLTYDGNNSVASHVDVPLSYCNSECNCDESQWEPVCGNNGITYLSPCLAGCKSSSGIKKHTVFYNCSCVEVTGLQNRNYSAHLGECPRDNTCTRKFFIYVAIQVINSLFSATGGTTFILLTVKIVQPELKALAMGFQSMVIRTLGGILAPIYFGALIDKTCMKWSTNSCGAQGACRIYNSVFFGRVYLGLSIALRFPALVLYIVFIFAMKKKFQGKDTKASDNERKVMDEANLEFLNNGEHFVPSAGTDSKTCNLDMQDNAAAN
Procedure: as §1, §2

[1] = Metabolite profiling using human plasma, HLM and human hepatocytes; conditions: human plasma
Procedure: as §4

[2] = Metabolite profiling / stability in human liver microsomes
Procedure: as §4, §5

T2 sequence (P20813 whole entry): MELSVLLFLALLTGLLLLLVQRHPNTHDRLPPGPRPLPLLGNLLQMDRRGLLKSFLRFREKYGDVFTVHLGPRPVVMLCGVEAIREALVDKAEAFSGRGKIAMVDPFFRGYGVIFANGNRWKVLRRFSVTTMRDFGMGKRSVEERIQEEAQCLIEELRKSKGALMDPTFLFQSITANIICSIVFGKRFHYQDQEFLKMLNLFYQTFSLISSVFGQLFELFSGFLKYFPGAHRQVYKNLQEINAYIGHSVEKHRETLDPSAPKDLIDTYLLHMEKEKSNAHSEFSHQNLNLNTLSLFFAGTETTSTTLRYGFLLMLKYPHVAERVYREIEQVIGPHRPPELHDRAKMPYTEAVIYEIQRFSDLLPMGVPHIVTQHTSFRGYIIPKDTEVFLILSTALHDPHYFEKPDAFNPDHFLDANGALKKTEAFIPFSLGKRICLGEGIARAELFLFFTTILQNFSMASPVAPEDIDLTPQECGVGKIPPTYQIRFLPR
CYP3A5, sequence (P20815 whole entry): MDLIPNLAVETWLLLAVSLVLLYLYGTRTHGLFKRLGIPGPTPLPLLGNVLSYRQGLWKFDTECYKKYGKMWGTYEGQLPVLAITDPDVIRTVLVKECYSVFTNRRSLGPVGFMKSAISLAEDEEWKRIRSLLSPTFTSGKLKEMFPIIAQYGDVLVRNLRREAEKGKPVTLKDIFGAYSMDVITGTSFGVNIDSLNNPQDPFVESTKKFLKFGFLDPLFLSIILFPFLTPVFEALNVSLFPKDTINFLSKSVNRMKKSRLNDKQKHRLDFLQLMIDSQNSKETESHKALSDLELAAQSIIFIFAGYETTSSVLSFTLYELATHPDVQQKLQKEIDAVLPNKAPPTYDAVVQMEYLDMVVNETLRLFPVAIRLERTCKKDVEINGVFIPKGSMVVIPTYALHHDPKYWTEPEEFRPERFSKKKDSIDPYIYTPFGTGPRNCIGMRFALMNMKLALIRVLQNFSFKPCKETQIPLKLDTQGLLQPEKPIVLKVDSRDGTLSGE

COc1cc(O[C@H]2C(C)(C)[C@H](NC(=O)c3ccc(N4CCC(CN5CCN(c6ccc(C(=O)N[C@H]7CCC(=O)NC7=O)c(F)c6)CC5)CC4)cc3)C2(C)C)ccc1C#N [Compound A, 4-(4-((1-(4-(((1R,3R)-3-(4-cyano-3-methoxyphenoxy)-2,2,4,4-tetramethylcyclobutyl)carbamoyl)phenyl)piperidin-4-yl)methyl)piperazin-1-yl)-N—((S)-2,6-dioxopiperidin-3-yl)-2-fluorobenzamide]
Fold accumulation, OATP1B1 (OATP1B1): < 2 fold | Substrate for OATP1B1 (OATP1B1; 0.1, 0.5, 1 and 5 μM): not a substrate | CYP2B6 mRNA Fold induction (CYP2B6 mRNA; Donor 1): <2 Fold | CYP2B6 mRNA Fold induction (CYP2B6 mRNA; Donor 2): <2 Fold | CYP2B6 mRNA Fold induction (CYP2B6 mRNA; Donor 3): <2 Fold | Induction of CYP2B6 mRNA (CYP2B6 mRNA; all three donors of human hepatocytes): did not induce | Loss of Compound A in CYP3A5 (CYP3A5): ≤ 23% | IC50 (CYP2B6; read-out: IC50, 30 min Pre-incubation): > 15 µM | IC50 (CYP2B6; read-out: IC50, No Pre-incubation): > 15 µM | Fold accumulation, OATP1B3 (OATP1B3): < 2 fold | Substrate for OATP1B3 (OATP1B3; 0.1, 0.5, 1 and 5 μM): not a substrate | Major metabolic pathway [1]: hydrolysis (M825/1) | % Parent at 0 Min, HLM at 60 min ([2]; human liver microsomes, 60 min): 92.6% | Stability in HLM incubations ([2]; up to 60 min at 2 μM): relatively stable
